# Reference: patent US9389223B2, “Pharmacodynamic assays” (The United States of America, as represented by the …, priority 2004, dated 2016)
# Experiments:
# Hsp70 = test: Flow cytometry of Hsp70 levels in K562 cells; assay type: cell-based; conditions: single drug, relative to control cells
# From the text: (§1) Leukemia K562 cell line samples containing approximately 5×10^6 to 1×10^7 cells were exposed to either the anti-cancer drug 17-allylaminogeldanamycin (17-AAG) or one of the deacetylase inhibitors MS-275 or trichostatin A (TSA). Some samples received both 17-AAG and TSA or both 17-AAG and MS-275. Control samples received no drug. Administration of the 17-AAG anti-cancer drug led to functional changes in Hsp90 and increased expression of Hsp70. […] TSA is a deacetylase inhibitor that can affect acetylation of numerous proteins. In this study, the effect of TSA on tubulin acetylation was observed using an antibody that specifically binds to acetylated tubulin.
# (§2) After treatment with the various drugs, the cells were resuspended in fixation solution (0.4% paraformaldehyde in PBS), incubated at 37° C. for 5-10 minutes and washed with wash buffer. The fixed cells were then resuspended in permeabilization solution (4% Triton X-100 in wash buffer) and incubated at room temperature for 5 minutes. Cells were incubated for 1 hour at room temperature with antibodies to the various pharmacodynamic markers. Several cell samples were incubated with antibodies to several markers at once. […] Fluorescence associated with the cells was detected and quantified by flow cytometry.
# acetylated tubulin = test: Flow cytometry of acetylated tubulin in K562 cells; assay type: cell-based; conditions: single drug
# From the text: as §1, §2
# [1] = test system: K562 chronic myelogenous leukemia cells; test: Flow cytometry of apoptosis (activated caspase 3) in K562 cells; assay type: cell-based, human; conditions: K562, 1 μM, 48 hours, single drug
# Experimental: (§3) K562 chronic myelogenous leukemia cells were incubated with vehicle alone, 1 μM imatinib (the anticancer drug also known as Gleevec), 1 μM MS-275, or both for 48 hours. The cells were then stained for acetylated lysine as described above and co-stained with antibody to activated caspase 3 as an indicator of cells undergoing apoptosis. Dot plots display acetylated lysine on the x-axis and activated caspase 3 on the y-axis. The multiparameter flow cytometric assay is a powerful tool to monitor pharmacodynamic changes induced by anticancer drugs used in monotherapy or combination therapy protocols. HDAC inhibitors have been reported to promote imatinib-mediated apoptosis in Bcr/Abl+ human myeloid leukemia cells, including imatinib-resistant cells. The effect of MS-275 and imatinib were therefore examined, alone and in combination, on apoptosis in the Bcr/Abl+ cell line K562. Because both MS-275 and imatinib have been reported to induce apoptosis associated with caspase 3 activation, an antibody was used that specifically recognizes activated caspase 3 in a flow assay. This caspase 3 flow assay effectively monitors drug-induced apoptosis. When combined detection of acetylated lysine, this flow assay permitted simultaneous monitoring of apoptosis (caspase 3) and acetylated lysine.
# acetylated lysine = test: Flow cytometry of acetylated lysine in K562 cells co-stained for activated caspase 3; assay type: cell-based, human; conditions: K562, 1 μM, 48 hours
# Experimental: as §3
compound,measurement,setting,value
"C=CCNC1=C2C[C@@H](C)C[C@H](OC)[C@H](O)[C@@H](C)/C=C(\C)[C@H](OC(N)=O)[C@@H](OC)/C=C\C=C(/C)C(=O)NC(=CC1=O)C2=O [17-AAG, 17-allylaminogeldanamycin]",levels of Hsp70,Hsp70,increased levels of Hsp70
"CC(/C=C/C(=O)NO)=C\[C@@H](C)C(=O)c1ccc(N(C)C)cc1 [TSA, trichostatin A]",levels of acetylated tubulin,acetylated tubulin,increased levels of acetylated tubulin
"Cc1ccc(NC(=O)c2ccc(CN3CCN(C)CC3)cc2)cc1Nc1nccc(-c2cccnc2)n1 [imatinib, 4-[(4-Methyl-1-piperazinyl)methyl]-N-[4-methyl-3-[[4-(3-pyridinyl)-2-yrimidinyl]amino]-phenyl]benzamide methanesulfonate]",percent of apoptotic cells (activated caspase 3),[1],increased the percent of apoptotic cells
same,acetylation of the activated caspase 3 positive cell population,acetylated lysine,lost acetylation
"Nc1ccccc1NC(=O)c1ccc(CNC(=O)OCc2cccnc2)cc1 [MS-275, N-(2-aminophenyl)-4-[N-(pyridin-3-ylmethoxycarbonyl)aminomethyl]benzamide]",cells with strongly upregulated acetylation,acetylated lysine,over 50%
